In ChEMBL document CHEMBL3797102, “Drug trapping in hERG K+ channels: (not) a matter of drug size?” (Medchemcomm, 2016):

Legend:
Format in all cases: cell-based
hERG (KCNH2), wild type [1] = biological target: T1, hERG (KCNH2), wild type (Homo sapiens, UniProt Q12809); assay: Inhibition of wild type human ERG channel expressed in Xenopus laevis oocytes assessed as first current amplitude after resting period of 300 secs followed by single test pulse at -100 mV holding potential by two-electrode voltage clamp method; set-up: scale not given: the % may be the effect or the level left; conditions: read-out: Activity
[2] = biological target: T2, Voltage-gated inwardly rectifying potassium channel KCNH2 (Homo sapiens, UniProt Q12809); assay: Inhibition of wild type human ERG channel expressed in Xenopus laevis oocytes assessed as use dependent steady state block of induced K+ current at 150 uM preincubated for 330 secs followed by pulse train at 1 Hz at holding potential -100 mV by two-electrode voltage clamp method
[3] = biological target: T2, Voltage-gated inwardly rectifying potassium channel KCNH2; assay: Inhibition of wild type human ERG channel expressed in Xenopus laevis oocytes assessed as time taken for use dependent steady state block of K+ current at 150 uM preincubated for 330 secs followed by pulse train at 1 Hz at holding potential -100 mV by two-electrode voltage clamp method
hERG (KCNH2), wild type [4] = biological target: T1, hERG (KCNH2), wild type; assay: Inhibition of wild type human ERG channel expressed in Xenopus laevis oocytes assessed as use dependent steady state block of +20 mV-induced K+ current at 150 uM preincubated for 330 secs followed by pulse train at 1 Hz by two-electrode voltage clamp method
[5] = biological target: T2, Voltage-gated inwardly rectifying potassium channel KCNH2; assay: Inhibition of wild type human ERG channel expressed in Xenopus laevis oocytes assessed as recovery from channel block after resting period of 300 secs followed by single test pulse at -100 mV holding potential subsequently washed out at 0.3 Hz by two-electrode voltage clamp method; set-up: scale not given: the % may be the effect or the level left; conditions: 5 min
[6] = biological target: hERG (KCNH2) Y652A mutant (Homo sapiens, UniProt Q12809, Y652A); assay: Inhibition of human ERG channel Y652A mutant expressed in Xenopus laevis oocytes assessed as use dependent suppression of K+ current at 150 uM at 1 Hz equilibrated for 5 mins by two-electrode voltage clamp method
[7] = biological target: hERG (KCNH2) F656A mutant (Homo sapiens, UniProt Q12809, F656A); assay: Inhibition of human ERG channel F656A mutant expressed in Xenopus laevis oocytes assessed as use dependent suppression of tail current at 150 uM at -140 mV by two-electrode voltage clamp method
Chain of hERG (KCNH2) F656A mutant (Q12809 whole entry F656A): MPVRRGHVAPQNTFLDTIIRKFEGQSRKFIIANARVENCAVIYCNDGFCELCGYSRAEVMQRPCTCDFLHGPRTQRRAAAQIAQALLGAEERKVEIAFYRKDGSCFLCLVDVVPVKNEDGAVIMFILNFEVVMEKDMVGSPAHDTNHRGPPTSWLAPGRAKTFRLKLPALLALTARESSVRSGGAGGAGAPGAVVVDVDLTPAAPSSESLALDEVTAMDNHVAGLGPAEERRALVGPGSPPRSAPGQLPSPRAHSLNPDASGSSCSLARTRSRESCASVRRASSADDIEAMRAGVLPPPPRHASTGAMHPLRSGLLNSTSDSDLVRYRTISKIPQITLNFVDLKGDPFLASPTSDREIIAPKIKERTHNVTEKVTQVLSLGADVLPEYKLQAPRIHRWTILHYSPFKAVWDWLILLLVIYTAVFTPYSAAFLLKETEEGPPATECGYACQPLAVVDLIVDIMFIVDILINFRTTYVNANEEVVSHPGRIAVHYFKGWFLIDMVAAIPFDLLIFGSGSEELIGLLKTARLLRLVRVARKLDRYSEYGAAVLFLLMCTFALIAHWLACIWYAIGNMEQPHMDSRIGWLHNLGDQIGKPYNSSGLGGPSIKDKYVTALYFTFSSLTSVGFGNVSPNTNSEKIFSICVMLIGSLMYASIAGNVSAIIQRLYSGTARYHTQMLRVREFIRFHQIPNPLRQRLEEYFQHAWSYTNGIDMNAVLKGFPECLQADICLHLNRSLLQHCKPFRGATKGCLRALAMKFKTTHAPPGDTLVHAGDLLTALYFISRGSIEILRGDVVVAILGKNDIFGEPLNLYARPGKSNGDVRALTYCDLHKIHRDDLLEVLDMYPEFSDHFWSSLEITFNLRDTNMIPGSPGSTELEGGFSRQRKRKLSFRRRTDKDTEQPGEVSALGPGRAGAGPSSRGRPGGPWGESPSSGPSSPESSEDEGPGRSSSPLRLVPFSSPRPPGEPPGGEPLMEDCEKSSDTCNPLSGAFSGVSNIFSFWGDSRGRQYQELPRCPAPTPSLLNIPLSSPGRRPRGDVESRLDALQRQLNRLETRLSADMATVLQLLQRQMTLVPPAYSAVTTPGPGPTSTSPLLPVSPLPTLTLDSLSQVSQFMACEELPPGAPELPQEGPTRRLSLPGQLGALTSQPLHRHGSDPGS

T2 sequence (Q12809 whole entry): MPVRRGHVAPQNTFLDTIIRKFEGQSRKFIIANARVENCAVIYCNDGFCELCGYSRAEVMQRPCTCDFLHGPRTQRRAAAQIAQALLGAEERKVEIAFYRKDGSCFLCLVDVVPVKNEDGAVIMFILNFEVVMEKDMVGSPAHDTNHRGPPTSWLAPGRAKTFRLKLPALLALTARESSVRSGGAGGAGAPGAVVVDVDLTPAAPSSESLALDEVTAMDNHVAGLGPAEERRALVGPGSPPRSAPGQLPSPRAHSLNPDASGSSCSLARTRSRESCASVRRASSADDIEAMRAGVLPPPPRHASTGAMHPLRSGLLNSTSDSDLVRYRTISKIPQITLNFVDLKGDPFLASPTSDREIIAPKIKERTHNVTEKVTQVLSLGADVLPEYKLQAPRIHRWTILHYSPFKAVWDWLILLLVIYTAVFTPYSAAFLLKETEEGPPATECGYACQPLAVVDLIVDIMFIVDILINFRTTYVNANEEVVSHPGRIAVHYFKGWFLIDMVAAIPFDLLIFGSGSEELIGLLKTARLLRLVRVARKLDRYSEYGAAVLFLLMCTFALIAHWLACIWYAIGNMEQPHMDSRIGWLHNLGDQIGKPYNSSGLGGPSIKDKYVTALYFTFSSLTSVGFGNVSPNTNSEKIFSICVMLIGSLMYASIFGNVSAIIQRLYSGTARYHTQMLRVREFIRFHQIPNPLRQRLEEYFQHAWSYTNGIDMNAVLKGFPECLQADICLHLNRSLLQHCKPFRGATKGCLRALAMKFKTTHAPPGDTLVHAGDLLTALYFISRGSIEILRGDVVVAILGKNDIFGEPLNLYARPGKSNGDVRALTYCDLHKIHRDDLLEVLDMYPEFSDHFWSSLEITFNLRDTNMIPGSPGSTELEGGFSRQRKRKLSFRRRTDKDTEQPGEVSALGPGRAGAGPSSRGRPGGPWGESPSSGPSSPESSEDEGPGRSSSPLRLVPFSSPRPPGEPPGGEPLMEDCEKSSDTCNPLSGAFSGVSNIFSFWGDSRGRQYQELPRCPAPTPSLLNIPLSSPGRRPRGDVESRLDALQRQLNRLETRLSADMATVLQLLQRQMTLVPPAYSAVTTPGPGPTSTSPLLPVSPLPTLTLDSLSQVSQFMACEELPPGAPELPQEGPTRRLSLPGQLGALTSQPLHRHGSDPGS
T1 sequence (Q12809 whole entry): as above
Chain of hERG (KCNH2) Y652A mutant (Q12809 whole entry Y652A): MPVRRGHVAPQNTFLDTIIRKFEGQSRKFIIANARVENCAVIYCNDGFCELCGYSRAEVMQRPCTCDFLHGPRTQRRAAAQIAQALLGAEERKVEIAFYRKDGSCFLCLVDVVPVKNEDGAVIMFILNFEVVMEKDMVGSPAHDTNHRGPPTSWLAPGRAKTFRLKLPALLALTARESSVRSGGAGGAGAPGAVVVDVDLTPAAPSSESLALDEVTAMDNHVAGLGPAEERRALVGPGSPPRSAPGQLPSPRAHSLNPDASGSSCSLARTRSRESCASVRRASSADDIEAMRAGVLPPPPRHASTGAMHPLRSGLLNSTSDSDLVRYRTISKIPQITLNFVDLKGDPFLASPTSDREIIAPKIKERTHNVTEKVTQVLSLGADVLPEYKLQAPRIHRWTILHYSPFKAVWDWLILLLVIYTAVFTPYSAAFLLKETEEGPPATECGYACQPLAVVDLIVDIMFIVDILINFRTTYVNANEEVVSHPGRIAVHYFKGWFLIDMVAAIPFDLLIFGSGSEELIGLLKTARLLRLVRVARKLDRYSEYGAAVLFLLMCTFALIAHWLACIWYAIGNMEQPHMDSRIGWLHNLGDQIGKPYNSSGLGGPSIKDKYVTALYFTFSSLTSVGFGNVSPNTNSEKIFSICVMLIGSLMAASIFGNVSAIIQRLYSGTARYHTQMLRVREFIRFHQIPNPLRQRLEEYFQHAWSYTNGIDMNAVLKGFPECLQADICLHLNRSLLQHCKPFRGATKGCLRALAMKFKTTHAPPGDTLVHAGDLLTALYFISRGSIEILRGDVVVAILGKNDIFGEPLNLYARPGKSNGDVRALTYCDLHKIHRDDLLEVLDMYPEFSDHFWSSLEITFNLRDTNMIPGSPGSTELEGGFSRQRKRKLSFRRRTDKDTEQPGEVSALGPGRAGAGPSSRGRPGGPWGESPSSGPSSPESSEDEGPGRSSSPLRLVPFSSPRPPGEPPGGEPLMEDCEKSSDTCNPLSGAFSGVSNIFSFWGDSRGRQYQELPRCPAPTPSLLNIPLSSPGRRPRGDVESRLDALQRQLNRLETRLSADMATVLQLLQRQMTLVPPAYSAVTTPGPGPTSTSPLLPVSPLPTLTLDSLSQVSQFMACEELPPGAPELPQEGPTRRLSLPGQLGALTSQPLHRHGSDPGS

O=C(CCc1ccccc1)c1ccccc1OCC(O)CN1CCN(C(c2ccccc2)(c2ccccc2)c2ccccc2)CC1 (configuration not stated)
activity at 5 min (hERG (KCNH2), wild type [1]): < 1% | inhibition (INH) [2]: Active | Time [3]: 15 s | inhibition at 330 s, 150 µM (hERG (KCNH2), wild type [4]): 69% | Activity [5]: 47.5% | inhibition at 5 min, 150 µM [6]: 13.2% | inhibition at 150 µM [7]: 18.3%
